Assay results from patent US20160162632A1, “METHOD OF SCREENING REACTIONS OR BIOLOGICAL PATHWAYS INDUCED BY COMPOUND” (Samsung Electronics Co., Ltd., priority 2014, published 2016).

Test system: biochemical pathways with which genes with a change in expression level are associated
Experiment: Selection among predicted reactions using differentially expressed genes (DEGs) by dapsone and DAVID pathway annotation
Type: cell-based
Details: reaction included in the "arginine and prolyl metabolism" pathway from DEGs; FIG. 7
Source text: Genes that are differentially expressed (differentially expressed genes, DEGs) by dapsone were experimentally determined. Information about biochemical pathways to which the DEGs are involved was obtained by a functional annotation tool of bioinformatics resources (DAVID Bioinformatics Resources version 6.7 operated by the National Institute of Allergy and Infectious Diseases ([…]), Bethesda, Md.; see Huang D W, Sherman B T, Lempicki R A. “Systematic and integrative analysis of large gene lists using DAVID Bioinformatics Resources,” Nature Protoc. 2009; 4(1):44-57; Huang D W, Sherman B T, Lempicki R A. “Bioinformatics enrichment tools: paths toward the comprehensive functional analysis of large gene lists,” Nucleic Acids Res. 2009; 37(1):1-13).
The term “Term” refers to a pathway related to a gene list. The terms “Genes” and “Count” denotes the numbers of genes included in the corresponding terms. The length of the square in the column for “Genes” indicates the number of genes included in the corresponding terms. % refers to a ratio of genes included in the corresponding terms to genes input as DEGs of dapson. These pathways were identified in terms of whether each of the predicted reaction as described in Example 2.1. is included therein.

Nc1ccc(S(=O)(=O)c2ccc(N)cc2)cc1 [dapsone, 4,4′-diaminodiphenylsulfone]
enzyme reaction determined as induced in a cell by treatment: ATP:creatine N-phosphotransferase reaction
